# What was measured:
# [1] = test system: M. tuberculosis H37Rv; format: cell-based, Mycobacterium tuberculosis
# [2] = test system: M. tuberculosis H37Rv ΔRD1 ΔpanCD; format: cell-based; settings: treated for 3 days
# [3] = test system: M. tuberculosis mc26230 (H37Rv ΔRD1 ΔpanCD); format: cell-based; settings: anaerobic chamber; 4 mM VC
# [4] = test system: M. tuberculosis; format: cell-based, Mycobacterium tuberculosis
# [5] = test system: M. tuberculosis; format: cell-based, Mycobacterium tuberculosis; remark: listed apart in the source
# [6] = test system: M. tuberculosis H37Rv ΔRD1 ΔpanCD; format: cell-based; settings: cysteine 4 mM, 24 h
# [7] = test system: M. tuberculosis H37Rv ΔRD1 ΔpanCD; format: cell-based; settings: cysteine 4 mM, 24 h; remark: listed apart in the source
# [8] = test system: M. tuberculosis; format: cell-based, Mycobacterium tuberculosis; remark: listed apart in the source
compound,measurement,setting,value
OC(CS)C(O)CS (stereo not drawn) [Dithio- threitol],sterilization of cultures when combined with INH,[1],sterilized
"CC[C@@H](CO)NCCN[C@@H](CC)CO [EMB, Ethambutol, reference compound]",decrease in CFU,[1],very slow decrease
"NNC(=O)c1ccncc1 [INH, Isoniazid]",decrease in CFUs,[1],3-4 log
same,intracellular levels of ferrous ions vs untreated sample,[2],very high
"O=C1O[C@H]([C@@H](O)CO)C(O)=C1O [VC, Vitamin C]",effect on M. tuberculosis viability,[3],no effect
same,increase in total ROS,[4],Up to threefold
same,total ROS concentration relative to the untreated sample,[4],did not substantially alter
same,cells with DNA breaks relative to untreated culture or culture treated with VE,[5],tenfold higher
same,percentage of cells with DNA breaks,[5],17-25%
"Cc1c(C)c2c(c(C)c1O)CC[C@@](C)(CCC[C@H](C)CCC[C@H](C)CCCC(C)C)O2 [VE, vitamin E, reference compound]",ROS level vs untreated samples,[4],lowered ROS level
N[C@@H](CS)C(=O)O [cysteine],cystine concentration vs untreated sample,[6],100 times
same,levels of free thiols,[7],lower
same,decrease in CFUs,[1],6 log
same,effect of cysteine on killing of M. tuberculosis by ETH,[1],did not increase the killing
same,growth of M. tuberculosis with cysteine alone,[1],not affected
"Cc1ccc2ccc3ccc(C)nc3c2n1 [neocuproine, reference compound]",decrease in CFUs,[1],5 log
same,growth of M. tuberculosis with neocuproine alone,[1],no impact on the growth
Antimycin,cidal activity,[8],no cidal activity

# — patent US20160298165A1 (priority 2013, published 2016)
